Experimental data published in ChEMBL document CHEMBL1201862, “PubChem BioAssay data set” (2004).
Calls of active or inactive are those of the source.

Assays:
[1] = target: T1, Short transient receptor potential channel 4 (Mus musculus, UniProt Q9QUQ5); experiment: mouse TRPC4 channel activators, dose response, cell-based, HEK293 TRPC4/mu-opioid, Fluo-4 calcium (AID 434937); type: functional
T1 sequence (Q9QUQ5 whole entry): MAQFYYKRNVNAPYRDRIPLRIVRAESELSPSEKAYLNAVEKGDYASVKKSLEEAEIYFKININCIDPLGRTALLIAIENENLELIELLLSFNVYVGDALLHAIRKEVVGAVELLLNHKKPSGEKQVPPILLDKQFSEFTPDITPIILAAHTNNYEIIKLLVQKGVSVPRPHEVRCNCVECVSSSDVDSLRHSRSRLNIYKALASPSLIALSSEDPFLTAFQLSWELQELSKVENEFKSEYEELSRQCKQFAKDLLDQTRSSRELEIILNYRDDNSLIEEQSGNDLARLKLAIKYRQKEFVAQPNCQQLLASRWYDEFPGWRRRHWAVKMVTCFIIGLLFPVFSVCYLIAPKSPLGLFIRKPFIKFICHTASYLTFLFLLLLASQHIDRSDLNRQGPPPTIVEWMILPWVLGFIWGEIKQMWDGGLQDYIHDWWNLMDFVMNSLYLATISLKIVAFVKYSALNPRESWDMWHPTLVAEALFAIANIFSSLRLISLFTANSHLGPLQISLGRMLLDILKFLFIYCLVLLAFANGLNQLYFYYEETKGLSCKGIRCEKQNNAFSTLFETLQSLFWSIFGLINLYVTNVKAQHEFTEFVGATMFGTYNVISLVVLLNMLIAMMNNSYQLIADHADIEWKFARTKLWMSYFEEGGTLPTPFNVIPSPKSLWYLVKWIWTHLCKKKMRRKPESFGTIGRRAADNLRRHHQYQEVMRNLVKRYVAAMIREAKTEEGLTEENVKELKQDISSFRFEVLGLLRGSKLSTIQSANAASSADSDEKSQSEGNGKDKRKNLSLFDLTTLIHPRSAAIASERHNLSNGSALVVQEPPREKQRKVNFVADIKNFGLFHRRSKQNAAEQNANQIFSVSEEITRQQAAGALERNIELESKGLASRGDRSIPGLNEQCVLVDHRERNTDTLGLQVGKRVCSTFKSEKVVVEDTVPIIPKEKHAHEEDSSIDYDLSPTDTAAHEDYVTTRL

[2] = target: Delta-type opioid receptor (Homo sapiens, UniProt P41143); experiment: Counterscreen for agonists of heterodimerization of the mu 1 (OPRM1) and delta 1 (OPRD1) opioid receptors: Luminescence-based cell-based high throughput dose response assay to identify agonists of OPRD1 homodimerization. [Related pubchem assays (depositor defined):AID504326, AID504355, AID504692, AID504904, AID504905]; type: functional
Mu-type opioid receptor = Mu-type opioid receptor (Homo sapiens, UniProt P35372); experiment: Counterscreen for agonists of heterodimerization of the mu 1 (OPRM1) and delta 1 (OPRD1) opioid receptors: Luminescence-based cell-based high throughput dose response assay to identify agonists of OPRM1 homodimerization.; type: functional;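 further: U2OS cells expressing OPRM1 and beta-arrestin as split beta-galactosidase partners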
[3] = target: 5-hydroxytryptamine receptor 5A (Homo sapiens, UniProt P47898); experiment: Counterscreen for agonists of OPRM1-OPRD1 heterodimerization: luminescence-based cell-based high throughput dose response assay to identify agonists of 5-hydroxytryptamine (serotonin) 5A receptor (HTR5A). [Related pubchem assays (depositor defined):AID504326, AID504355, AID504692, AID504904, AID504905]; type: functional
[4] = target: T1, Short transient receptor potential channel 4; experiment: mouse TRPC4 channel inhibitors, dose response, cell-based, HEK293 TRPC4/mu-opioid, Fluo-4 calcium (AID 434942); type: functional;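 further: potency of inhibitors blocking the TRPC4 calcium response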
cells = type: functional
[5] = THP-1 cell cytotoxicity, dose response, cytotoxicity control for non-replicating M. tuberculosis project (AID 489025); type: functional
[6] = Vero E6 cell cytotoxicity, dose response, cytotoxicity control for non-replicating M. tuberculosis project, secondary assay (AID 492998); type: functional, VeroE6; details: Vero C1008
[7] = target: T2, Heat shock factor protein 1 (Mus musculus, UniProt P38532); experiment: inhibition of MG132-induced HSE-luciferase signal, confirmation, cell-based, NIH3T3, luminescence, dose retest (AID 2382); type: functional;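 further: NIH3T3 fibroblasts with HSF1-driven luciferase reporter stressed by proteasome inhibitor MG132; luminescence from HSF1-driven luciferase expression after 8 hours of MG132 stress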
T2 sequence (P38532 whole entry): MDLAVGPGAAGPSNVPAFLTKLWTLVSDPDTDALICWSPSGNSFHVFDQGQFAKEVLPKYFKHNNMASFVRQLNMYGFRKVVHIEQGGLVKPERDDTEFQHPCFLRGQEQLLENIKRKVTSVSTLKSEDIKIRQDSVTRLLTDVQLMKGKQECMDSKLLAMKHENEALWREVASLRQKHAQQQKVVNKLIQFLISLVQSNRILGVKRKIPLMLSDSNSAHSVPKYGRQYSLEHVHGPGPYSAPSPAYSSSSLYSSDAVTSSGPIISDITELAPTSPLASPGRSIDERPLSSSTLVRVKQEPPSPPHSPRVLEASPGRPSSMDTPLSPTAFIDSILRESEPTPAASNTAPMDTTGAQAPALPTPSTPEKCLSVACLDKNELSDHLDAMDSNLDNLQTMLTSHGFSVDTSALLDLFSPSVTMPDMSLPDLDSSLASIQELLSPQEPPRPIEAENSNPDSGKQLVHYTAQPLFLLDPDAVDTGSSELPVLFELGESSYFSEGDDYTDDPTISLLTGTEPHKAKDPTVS

Large T antigen = Large T antigen (Simian virus 40, UniProt P03070); type: functional, Betapolyomavirus macacae;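 further: Confirmatory-stage PubChem screen for compounds that inhibit SV40 T antigen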
[8] = target: Glucose-6-phosphate 1-dehydrogenase (Homo sapiens, UniProt P11413); experiment: human G6PD enzyme inhibitors, dose response, selectivity assay for P. falciparum G6PD inhibitor project, biochemical, fluorescence (AID 504792); type: functional
[9] = Luminescence Cell-Based Dose Retest to Confirm Inhibitors of Cancer Stem Cells. [Related pubchem assays (depositor defined):AID2717, AID2721]; type: functional; details: Homo sapiens
BJ [10] = experiment: cytotoxicity toward BJ-TERT fibroblasts, dose response, cell-based, RAS-independent, luminescence (AID 1933); type: functional; details: Homo sapiens
BJ [11] = experiment: cells; type: functional, cell-based; details: Homo sapiens
[12] = inhibitors of SNCA 5'UTR-driven reporter translation, confirmation, H4 neuroglioma cells, luminescence (AID 1988); type: functional, cell-based
[13] = cytotoxicity toward DRD oncogenic fibroblasts, dose response, cell-based, non-viral oncogenic, luminescence (AID 1934); type: functional; details: Homo sapiens
[14] = cytotoxicity in HEK-293T cells, dose response, cytotoxicity control for TCR NF-kB inhibitor project, luminescence, T-cell screen hits (AID 489026); type: functional, cell-based;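 further: cells exposed to compound about 14 hours before the viability readout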
BJ [15] = experiment: cytotoxicity toward BJ-TERT-LT-ST fibroblasts, dose response, cell-based, RAS-independent, luminescence (AID 1935); type: functional; details: Homo sapiens;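 further: BJ fibroblasts immortalized with TERT plus LT and ST oncogenes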
[16] = Luminescence Cell-Based Dose Response HTS to Identify Inhibitors of 5'UTR Stem-Loop Driven Prion Protein mRNA Translation in H4 Neuroglioblastoma Cells. [Related pubchem assays: 1827 (Project Summary), 1813 (Primary HTS)]; type: functional
[17] = inhibitors of firefly luciferase expression or activity, dose response, H4 neuroglioma cells, luminescence (AID 1990); type: functional, cell-based
[18] = cytotoxicity in HEK-293T cells, dose response, cytotoxicity control for BCR NF-kB inhibitor project, luminescence, B-cell screen hits (AID 489021); type: functional, cell-based;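 further: HEK-293T cells carrying an NF-kB luciferase reporter; cells exposed to compound for about 14 hours before viability readout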
HEK293 = experiment: inhibitors of LMP1-driven NF-kB reporter, dose response, cell-based, HEK293, luciferase, cherry-pick (AID 588343); type: functional; details: Homo sapiens

Delta-type opioid receptor, sequence (P41143 whole entry): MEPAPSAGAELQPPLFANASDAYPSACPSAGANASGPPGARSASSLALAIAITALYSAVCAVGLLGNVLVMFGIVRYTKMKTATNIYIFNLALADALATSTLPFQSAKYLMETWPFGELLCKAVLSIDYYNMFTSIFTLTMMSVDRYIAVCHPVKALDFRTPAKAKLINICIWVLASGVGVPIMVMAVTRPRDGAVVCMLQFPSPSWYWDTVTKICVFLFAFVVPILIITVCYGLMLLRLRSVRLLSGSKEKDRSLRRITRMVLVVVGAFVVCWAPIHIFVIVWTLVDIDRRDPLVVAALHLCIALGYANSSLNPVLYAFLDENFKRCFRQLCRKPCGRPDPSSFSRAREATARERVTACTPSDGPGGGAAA
5-hydroxytryptamine receptor 5A, sequence (P47898 whole entry): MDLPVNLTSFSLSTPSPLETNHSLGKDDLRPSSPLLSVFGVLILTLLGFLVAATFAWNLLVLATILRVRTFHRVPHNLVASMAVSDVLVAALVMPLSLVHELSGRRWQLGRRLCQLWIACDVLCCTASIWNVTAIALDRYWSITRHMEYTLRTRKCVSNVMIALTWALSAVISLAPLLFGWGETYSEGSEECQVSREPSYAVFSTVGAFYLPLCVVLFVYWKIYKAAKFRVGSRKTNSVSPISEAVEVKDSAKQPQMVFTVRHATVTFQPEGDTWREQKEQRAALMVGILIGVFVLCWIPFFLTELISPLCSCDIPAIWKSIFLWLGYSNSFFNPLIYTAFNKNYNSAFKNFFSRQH
Mu-type opioid receptor, sequence (P35372 whole entry): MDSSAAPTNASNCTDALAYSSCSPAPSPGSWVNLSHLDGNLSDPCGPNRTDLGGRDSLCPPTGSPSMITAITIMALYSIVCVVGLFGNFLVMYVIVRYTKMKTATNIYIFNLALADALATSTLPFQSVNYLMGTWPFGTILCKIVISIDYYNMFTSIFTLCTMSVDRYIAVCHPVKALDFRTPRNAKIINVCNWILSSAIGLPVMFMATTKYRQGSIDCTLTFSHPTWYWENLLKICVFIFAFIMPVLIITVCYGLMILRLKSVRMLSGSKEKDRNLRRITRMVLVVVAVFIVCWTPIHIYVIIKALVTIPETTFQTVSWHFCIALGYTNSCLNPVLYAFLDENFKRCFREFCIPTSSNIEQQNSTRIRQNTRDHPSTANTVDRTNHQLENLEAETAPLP
Glucose-6-phosphate 1-dehydrogenase, sequence (P11413 whole entry): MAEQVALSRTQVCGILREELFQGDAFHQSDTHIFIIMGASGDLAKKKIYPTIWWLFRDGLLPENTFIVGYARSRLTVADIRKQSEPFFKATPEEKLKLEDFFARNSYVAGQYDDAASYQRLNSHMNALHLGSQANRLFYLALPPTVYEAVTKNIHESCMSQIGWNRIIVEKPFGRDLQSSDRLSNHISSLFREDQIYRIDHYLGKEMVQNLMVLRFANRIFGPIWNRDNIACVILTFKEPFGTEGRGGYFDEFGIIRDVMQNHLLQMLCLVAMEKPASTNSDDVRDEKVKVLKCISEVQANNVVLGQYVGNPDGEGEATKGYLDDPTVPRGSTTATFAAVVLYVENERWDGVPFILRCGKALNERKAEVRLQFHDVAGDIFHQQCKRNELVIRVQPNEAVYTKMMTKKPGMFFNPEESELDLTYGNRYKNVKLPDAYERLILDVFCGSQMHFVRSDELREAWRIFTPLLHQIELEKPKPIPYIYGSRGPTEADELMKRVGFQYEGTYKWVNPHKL
Large T antigen, sequence (P03070 whole entry): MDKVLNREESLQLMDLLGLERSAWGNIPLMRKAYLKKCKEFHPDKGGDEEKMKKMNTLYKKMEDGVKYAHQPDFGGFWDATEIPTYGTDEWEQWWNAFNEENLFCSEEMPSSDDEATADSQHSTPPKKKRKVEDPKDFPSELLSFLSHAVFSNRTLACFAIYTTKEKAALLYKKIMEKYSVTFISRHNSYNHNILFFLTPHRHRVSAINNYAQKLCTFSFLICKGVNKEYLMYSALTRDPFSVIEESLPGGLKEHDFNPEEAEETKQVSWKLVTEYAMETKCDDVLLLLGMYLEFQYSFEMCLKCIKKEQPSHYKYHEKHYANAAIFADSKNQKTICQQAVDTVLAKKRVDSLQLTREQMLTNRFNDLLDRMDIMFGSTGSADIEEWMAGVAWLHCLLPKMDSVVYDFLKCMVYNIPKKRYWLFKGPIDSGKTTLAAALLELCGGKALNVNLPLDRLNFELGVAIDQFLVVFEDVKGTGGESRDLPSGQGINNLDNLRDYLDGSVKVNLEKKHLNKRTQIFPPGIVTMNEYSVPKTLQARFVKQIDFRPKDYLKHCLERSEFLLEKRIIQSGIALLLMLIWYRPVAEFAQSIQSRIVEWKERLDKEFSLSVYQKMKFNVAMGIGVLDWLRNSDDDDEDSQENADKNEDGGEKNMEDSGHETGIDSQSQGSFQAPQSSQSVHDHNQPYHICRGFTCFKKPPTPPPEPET

Compound: CCc1cccc(C)c1N=C(S)NCC(c1cccnc1)N(C)C (stereo unspecified)
- EC50 [1]: 0.0467 µM (active)
- EC50 [2]: 79.4 µM (inactive)
- EC50 (Mu-type opioid receptor): > 92.5 µM (inactive)
- EC50 [3]: > 92.5 µM (inactive)

Compound: CN(C)CCCN(C(=O)c1ccc(S(=O)(=O)N2CCc3ccccc3C2)cc1)c1nc2c(F)cc(F)cc2s1
- EC50 [1]: 1.19 µM (active)
- EC50 [2]: > 92.5 µM (inactive)
- EC50 (Mu-type opioid receptor): 5.1 µM (active)
- EC50 [3]: > 92.5 µM (inactive)

Compound: CN1CCN(c2nc(-c3cccnc3)nc3scc(-c4ccccc4)c23)CC1
- EC50 [4]: 11.9 µM (active)

Compound: Cc1nc([N+](=O)[O-])c(Br)n1Cc1ccccc1
- IC50 (cells): 9.77 µM (active)
- CC50 [5]: 30.1 µM (active)
- CC50 [6]: > 20 µM (active)

Compound: CCOC(=O)C1(CC2CC2)CCN(Cc2cnc(-c3ccccc3C)nc2)CC1
- EC50 [1]: 5.31 µM (active)
- EC50 [2]: > 92.5 µM (inactive)
- EC50 (Mu-type opioid receptor): > 92.5 µM (inactive)
- EC50 [3]: > 92.5 µM (inactive)

Compound: O=C1COc2ccc(N3C(=O)C=CC3=O)cc2N1
- EC50 [7]: 9.09 µM (active)
- EC50 [4]: 6.68 µM (active)
- IC50 (Large T antigen): > 100 µM (active)

Compound: OCCNCc1cc(Br)ccc1OCc1ccc(Cl)cc1Cl
- EC50 [4]: 3.35 µM (active)

Compound: O=C(Nc1nnc(S(=O)(=O)N2CCOCC2)s1)c1ccc(F)cc1
- IC50 [8]: > 80 µM (inactive)

Compound: COc1ccc(N=C2C(=S)N(c3ccc(OC)cc3)C(=NS(=O)(=O)c3ccccc3)N2c2ccccc2)cc1
- IC50 [8]: > 80 µM (inactive)

Compound: CC(C)(C)c1ccc(O)c(O)c1
- AC50 [9]: 4.47 µM (active)
- IC50 [8]: > 80 µM (inactive)

Compound: O=C(c1cc(-c2ccncc2)nc2c(Cl)cccc12)N1CCN(c2ccccc2F)CC1
- EC50 (BJ [10]): 8.6 µM (inconclusive)
- EC50 (BJ [11]): 18.9 µM (active)
- EC50 [12]: 3.67 µM (active)
- EC50 [13]: 12.8 µM (inconclusive)
- IC50 [14]: > 80 µM (inactive)
- EC50 (BJ [15]): 4.08 µM (active)
- EC50 [16]: > 120 µM (not active)
- EC50 [17]: 7.93 µM (inconclusive)

Compound: Cc1nn(C(C)(C)C)c(C)c1/C=N/OC(=O)Nc1ccc(Cl)c(Cl)c1
- EC50 [7]: < 0.16 µM (active)
- IC50 [18]: > 80 µM (inactive)
- AC50 (HEK293): 0.839 µM (active)

Compound: FC(F)(F)c1nnc2ccc(Cl)nn12
- IC50 (cells): 1.82 µM (active)
- CC50 [5]: 8.62 µM (active)
- CC50 [6]: > 20 µM (active)

Compound: COc1ccc(S(=O)(=O)Nc2cc3c(C(C)=O)c(C)oc3c3ccccc23)cc1
- EC50 (BJ [10]): 1.59 µM (active)
- EC50 (BJ [11]): 4.49 µM (active)
- EC50 [12]: 0.294 µM (active)
- IC50 [18]: > 80 µM (inactive)
- EC50 [13]: 1.91 µM (active)
- EC50 (BJ [15]): 1.26 µM (active)
- EC50 [16]: 2.67 µM (active)
- EC50 [17]: 2.35 µM (active)
